A short description of series [1]: Body mass change of mice in in vivo PDT treatment groups. Details: species or system Balb/c mice. The settings on record: control and treatment groups, after 14 days. As to the method: (§1) An optical fiber-coupled 980 nm high power laser diode (Hi-Tech Optoelectronics Co., Ltd. Beijing, China) was used to irradiate tumors at a power density of about 0.5 W/cm^2 for 40 min. (1 min. interval after each minute of irradiation). The tumor sizes were measured by a caliper every other day and calculated as the volume (tumor length)×(tumor width)^2/2. The body weight of mice was also measured with every tumor measurement and percent change was calculated by the formula (observed body weight)/(body weight on day 0)×100%.
FIG. 15 is a plot of body mass change of mice in in vivo PDT treatment groups with UCNP and light exposure after 14 days. […]

Series [2] is described as follows: Hydrodynamic size by dynamic light scattering. In kind it is physicochemical. The following applies: dynamic light scattering in PBS. As to the method: Dynamic light scattering was used to determine that the hydrodynamic size of the 5-ALA-conjugated nanoparticles was about 62 nm as shown in FIG. 6.
(§2) FT-IR spectra were recorded on a Nicolet Nexus FT-IR spectrometer, using the SMART iTR™ for ATR measurements. The upconversion photoluminescence spectra were measured by a SPEX FluoroMax®-3 spectrofluorimeter (Horiba) (spectral resolution of 1 nm, emission slit of 5 nm, and integral period of 0.1 s) excited at 980 nm using a fiber-coupled laser diode introduced to the sample chamber of the spectrofluorimeter. Cells were imaged using a Nikon Eclipse TE 2000 microscope, equipped with a Nuance CCD camera capable of imaging. The light source was a fiber-coupled laser diode emitting at 980 nm, with the fiber introduced through the entrance port of the microscope. The size distribution of the samples was determined by dynamic light scattering (DLS) equipped with a Zetasizer Nano-ZS (He—Ne laser wavelength at 633 nm) and an auto-titrator (Malvern Instruments, Malvern, UK). The absorbance for the MTT experiment and the fluorescence for DCFDA staining experiment was found using a microplate reader (Molecular Devices Co., Menlo Park, Calif.). 5-ALA concentration was monitored by HPLC (Varian ProStar) for loading efficiency data.

The next series deals with 4T1 tumors. The series is described as follows: In vivo deep tumor photodynamic therapy treatment, tumor volume. On the set-up: species or system Balb/c mice. The following applies: intratumoral. On the procedure:
In vivo testing was conducted in subcutaneous tumors grown on Balb/c mice models to evaluate the effect of photodynamic therapy treatment using the upconversion nanoparticles described herein. The tumor volume reduction effect of a red light laser ranging from ˜635-685 nm (PpIX's activation region) and 980 nm light irradiation (activation wavelength of the upconverting nanoparticles described herein) was compared at a biocompatible level of 0.5 W/cm^2.
Female Balb/c mice were purchased from Nanjing Peng Sheng Biological Technology Co. Ltd. and used under protocols approved by Soochow University Laboratory Animal Center. 4T1 cells (1×10^6) suspended in 40 μL of PBS were subcutaneously injected into the back of each female Balb/c mouse. After about 6 days, the mice bearing 4T1 tumors were treated when the tumor volume reached about 50 mm^3.
as §1
FIGS. 14(a) and 14(b). FIG. 14(a): Plots of the in vivo volume of tumors exposed to various controls and ALAUCNPs with red and near-infrared irradiation (0.5 W/cm^2) in simulated deep tumors. […] Statistical significance was determined from one-way t tests; significance (*) was based on p<0.05 and p>0.05 for not significant (**) pairs. There was no statistical difference between treatments with ALA-UCNPs with no pork whether red or near infra-red light was used. […] FIG. 14(b) is a diagram of in vivo photodynamic therapy treatment with red or near infra-red light conducted inserting pork tissue between the laser and the mice tumors to simulate treatment of deep tumors.

Series [3] can be described thus: 5-Aminolevulinic acid loading determination by HPLC. In kind it is physicochemical. The settings on record: HPLC of supernatants, back-calculation.
From the text: FT-IR spectral analysis confirmed that the conjugation of 5-ALA to the nanoparticles was via a hydrazone linkage as shown in panels (d) and (e) of FIG. 7, which show (d) full and (e) detailed spectra for polyacrylic acid-coated upconverting nanoparticles, (PAA-UCNPs), hydrazide-functionalized upconverting nanoparticles (Hyd-UCNPs) and 5-ALA-conjugated upconverting nanoparticles. On the spectrum for Poly(acrylic) acid-functionalized UCNPs (PAA-UCNPs), the peak at 1636 cm^−1 is attributed to the resonance of the carboxyl groups. […]
as §2, with “Cells were imaged using a Nikon Eclipse TE 2000 microscope, equipped with a Nuance CCD camera capable of imaging. The light source was a fiber-coupled laser diode emitting at 980 nm, with the fiber introduced through the entrance port of the microscope.” left out, “5-ALA concentration was monitored by HPLC (Varian ProStar) for loading efficiency data.” left out

This is an account of results in patent publication US9956426B2, “Upconverting nanoparticles” (priority 2015, dated 2018).

With “α-NaYF4:Yb(80%),Er(2%)@CaF2 ALA [ALA-UCNPs]”, the body mass change entry in series [1] is given as “no significant difference across the groups”. Moreover, in series [2], the hydrodynamic size entry was “about 62 nm”. Besides, the “tumor reduction, 980 nm light with 12 mm pork versus red light with 6 mm pork” value in the series with 4T1 tumors (0.5 W/cm^2) is “significantly more effective”. The “tumor volume, treatment with NIR versus red light” value in the series with 4T1 tumors (0.5 W/cm^2, no pork) is on record as “no statistically significant difference”. Also, the tumor reduction result with 4T1 tumors (980 nm 0.5 W/cm^2, 6 or 12 mm of pork tissue above the tumor) was “about 150 mm^3”. Besides, the therapeutic effect entry in the series with 4T1 tumors (red light irradiation 0.5 W/cm^2, pork tissue above the tumor) is “no noticeable therapeutic effect”. Moreover, the “loading capacity for 5-ALA” value in series [3] is “about 4.5 μmol/mg”.
